19 compounds from patent US9777000B2, “Pyrazole derivative” (MOCHIDA PHARMACEUTICAL CO., LTD., priority 2013, dated 2017) can be followed below.

One may read the IC50 as the concentration at which inhibition is half-maximal.

Sequence of human PDE10 (Q9Y233 whole entry): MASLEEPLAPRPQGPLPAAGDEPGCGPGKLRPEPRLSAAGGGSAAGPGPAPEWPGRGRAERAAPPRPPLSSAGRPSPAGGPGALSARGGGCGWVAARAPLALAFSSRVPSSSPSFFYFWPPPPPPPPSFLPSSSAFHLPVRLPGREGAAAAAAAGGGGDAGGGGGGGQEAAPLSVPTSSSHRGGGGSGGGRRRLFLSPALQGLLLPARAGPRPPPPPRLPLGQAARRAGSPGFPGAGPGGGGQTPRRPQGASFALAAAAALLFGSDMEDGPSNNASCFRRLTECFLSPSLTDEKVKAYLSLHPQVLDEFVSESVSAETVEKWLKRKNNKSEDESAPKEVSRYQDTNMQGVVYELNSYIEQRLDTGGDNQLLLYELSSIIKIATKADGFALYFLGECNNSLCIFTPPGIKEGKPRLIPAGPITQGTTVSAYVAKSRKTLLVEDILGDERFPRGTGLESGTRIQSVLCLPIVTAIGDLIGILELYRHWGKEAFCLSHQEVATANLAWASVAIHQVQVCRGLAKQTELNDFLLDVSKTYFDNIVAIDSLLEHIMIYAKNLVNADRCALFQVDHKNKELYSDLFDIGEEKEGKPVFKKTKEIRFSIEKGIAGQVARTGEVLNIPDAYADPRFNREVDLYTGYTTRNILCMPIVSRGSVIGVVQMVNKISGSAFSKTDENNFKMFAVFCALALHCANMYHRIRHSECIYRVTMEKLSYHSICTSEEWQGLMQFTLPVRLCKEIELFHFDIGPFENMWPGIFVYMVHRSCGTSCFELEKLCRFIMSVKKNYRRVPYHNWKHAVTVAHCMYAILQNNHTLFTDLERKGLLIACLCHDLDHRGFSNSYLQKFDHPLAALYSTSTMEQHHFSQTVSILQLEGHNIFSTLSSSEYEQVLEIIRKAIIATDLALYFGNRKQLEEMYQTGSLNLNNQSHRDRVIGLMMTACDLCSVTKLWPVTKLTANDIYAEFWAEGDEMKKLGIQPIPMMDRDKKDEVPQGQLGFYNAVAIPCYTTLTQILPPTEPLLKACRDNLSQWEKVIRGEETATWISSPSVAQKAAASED

For the assay, the target named is human PDE10 (Homo sapiens (Human), UniProt Q9Y233). Briefly: Evaluation of enzyme inhibitory activity: human PDE10 inhibitory effect (IMAP TR-FRET). It counts as biochemical. Conditions: cAMP substrate. Summed up:
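IMAP TR-FRET assay: PDE10 (diluted to 2 ng/mL) was preincubated 5 min with compound in Tris pH 7.2, 10 mM MgCl2, 0.1% BSA, then reacted 60 min at room temperature with cAMP (diluted to 400 nM). 5′-AMP was read as 520/490 nm TR-FRET (ex 340 nm) after ≥3 h binding; IC50 was referenced to solvent (0%) and no-enzyme (100%) wells.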
(In general: In TR-FRET formats the signal depends on donor and acceptor labels being close together.)
`CC(C)c1nsc(-c2cnn(C)c2C(=O)NC2CCn3cc(-c4ccccc4)nc3C2)n1` (stereo not shown) [Example 2.14, 4-(3-isopropyl-1,2,4-thiadiazol-5-yl)-1-methyl-N-(2-phenyl-5,6,7,8-tetrahydroimidazo[1,2-a]pyridin-7-yl)-1H-pyrazole-5-carboxamide] gave an IC50 of less than 5 nM.

`Cn1ncc(-c2cccnn2)c1C(=O)Nc1cc2nc(-c3ccccc3)nn2cc1F` [Example 3.47, N-(6-fluoro-2-phenyl-[1,2,4]triazolo[1,5-a]pyridin-7-yl)-1-methyl-4-(pyridazin-3-yl)-1H-pyrazole-5-carboxamide]: the IC50 is less than 5 nM.

`Cc1cncc(-c2cnn(C)c2C(=O)Nc2ccn3nc(N4CCCC4)nc3c2)n1` [Example 4.29, 1-methyl-4-(6-methylpyrazin-2-yl)-N-(2-(pyrrolidin-1-yl)-[1,2,4]triazolo[1,5-a]pyridin-7-yl)-1H-pyrazole-5-carboxamide] gave an IC50 of less than 5 nM.

Turning to `Cc1sc(-c2cnn(C)c2C(=O)Nc2ccn3cc(-c4ccccc4)nc3c2)nc1C(F)F` [Example 1.4, 4-(4-(difluoromethyl)-5-methylthiazol-2-yl)-1-methyl-N-(2-phenylimidazo[1,2-a]pyridin-7-yl)-1H-pyrazole-5-carboxamide], the IC50 is less than 5 nM.

In turn, `Cc1nc(-c2cnn(C)c2C(=O)NC2CCn3nc(-c4ccccc4)nc3C2)sc1Br` (stereo not shown) [Example 5.7, 4-(5-bromo-4-methylthiazol-2-yl)-1-methyl-N-(2-phenyl-5,6,7,8-tetrahydro-[1,2,4]triazolo[1,5-a]pyridin-7-yl)-1H-pyrazole-5-carboxamide] came in with an IC50 of less than 5 nM.

`Cn1ncc(-c2nc(C(F)(F)F)cs2)c1C(=O)NC1CCn2cc(-c3cccc(F)c3)nc2C1` (stereo not shown) [Example 2.8, N-(2-(3-fluorophenyl)-5,6,7,8-tetrahydroimidazo[1,2-a]pyridin-7-yl)-1-methyl-4-(4-(trifluoromethyl)thiazol-2-yl)-1H-pyrazole-5-carboxamide] showed an IC50 of less than 5 nM.

`Cn1ncc(-c2nc(C(F)F)cs2)c1C(=O)Nc1ccn2nc(-c3ccccc3)nc2c1` [Example 3.15, 4-(4-(difluoromethyl)thiazol-2-yl)-1-methyl-N-(2-phenyl-[1,2,4]triazolo[1,5-a]pyridin-7-yl)-1H-pyrazole-5-carboxamide] displayed an IC50 of less than 5 nM.

`Cc1ccnc(-c2cnn(C)c2C(=O)Nc2ccn3nc(N4CCC[C@@H]4C)nc3c2)c1` [Example 4.4, (S)-1-methyl-4-(4-methylpyridin-2-yl)-N-(2-(2-methylpyrrolidin-1-yl)-[1,2,4]triazolo[1,5-a]pyridin-7-yl)-1H-pyrazole-5-carboxamide]: the IC50 was less than 5 nM.

Turning to `Cc1cnc(C)c(-c2cnn(C)c2C(=O)Nc2cc3nc(-c4ccccc4)nn3cc2F)n1` [Example 3.14, 4-(3,6-dimethyl-pyrazin-2-yl)-N-(6-fluoro-2-phenyl-[1,2,4]triazolo[1,5-a]pyridin-7-yl)-1-methyl-1H-pyrazole-5-carboxamide], the IC50 was less than 5 nM.

On to `Cc1ncnc(-c2cnn(C)c2C(=O)Nc2cc3nc(-c4ccccc4)nn3cc2F)c1C` [Example 3.35, 4-(5,6-dimethylpyrimidin-4-yl)-N-(6-fluoro-2-phenyl-[1,2,4]triazolo[1,5-a]pyridin-7-yl)-1-methyl-1H-pyrazole-5-carboxamide], for which the IC50 was less than 5 nM.

Take `COc1cncc(-c2cnn(C)c2C(=O)Nc2cc3nc(-c4ccccc4)nn3cc2F)n1` [Example 3.42, N-(6-fluoro-2-phenyl-[1,2,4]triazolo[1,5-a]pyridin-7-yl)-4-(6-methoxypyrazin-2-yl)-1-methyl-1H-pyrazole-5-carboxamide]: the IC50 is less than 5 nM.

As for `Cn1ncc(-c2nc(C(F)F)c(Cl)s2)c1C(=O)NC1CCn2cc(-c3ccccc3)nc2C1` (stereo not shown) [Example 2.5, 4-(5-chloro-4-(difluoromethyl)thiazol-2-yl)-1-methyl-N-(2-phenyl-5,6,7,8-tetrahydroimidazo[1,2-a]pyridin-7-yl)-1H-pyrazole-5-carboxamide], the IC50 is less than 5 nM.

With `Cc1cncc(-c2cnn(C)c2C(=O)NC2CCn3cc(-c4ccccc4)nc3C2)n1` (stereo not shown) [Example 2.13, 1-methyl-4-(6-methylpyrazin-2-yl)-N-(2-phenyl-5,6,7,8-tetrahydroimidazo[1,2-a]pyridin-7-yl)-1H-pyrazole-5-carboxamide], the IC50 is less than 5 nM.

`Cc1nc(C)c(C)c(-c2cnn(C)c2C(=O)Nc2cc3nc(-c4ccccc4)nn3cc2F)n1` [Example 3.37, N-(6-fluoro-2-phenyl-[1,2,4]triazolo[1,5-a]pyridin-7-yl)-1-methyl-4-(2,5,6-trimethylpyrimidin-4-yl)-1H-pyrazole-5-carboxamide] registered an IC50 of less than 5 nM.

`COc1ncc(F)c(-c2cnn(C)c2C(=O)Nc2cc3nc(-c4ccccc4)nn3cc2F)n1` [Example 3.27, 4-(5-fluoro-2-methoxypyrimidin-4-yl)-N-(6-fluoro-2-phenyl-[1,2,4]triazolo[1,5-a]pyridin-7-yl)-1-methyl-1H-pyrazole-5-carboxamide] yielded an IC50 of less than 5 nM.

Regarding `Cc1cc(C)nc(-c2cnn(C)c2C(=O)Nc2cc3nc(N4CC[C@H](F)C4)nn3cc2F)c1` [Example 4.24, (S)-4-(4,6dimethylpyridin-2-yl)-N-(6-fluoro-2-(3-fluoropyrrolidin-1-yl)-[1,2,4]triazolo[1,5-a]pyridin-7-yl)-1-methyl-1H-pyrazole-5-carboxamide], the IC50 is less than 5 nM.

The compound `Cc1ccc(-c2cnn(C)c2C(=O)Nc2cc3nc(-c4ccccc4)nn3cc2F)nn1` [Example 3.45, N-(6-fluoro-2-phenyl-[1,2,4]triazolo[1,5-a]pyridin-7-yl)-1-methyl-4-(6-methylpyridazin-3-yl)-1H-pyrazole-5-carboxamide] yielded an IC50 of less than 5 nM.

`Cn1ncc(-c2nc(C(F)(F)F)cs2)c1C(=O)Nc1ccn2nc(N3CCCC3)nc2c1` [Example 4.34, 1-methyl-N-(2-(pyrrolidin-1-yl)-[1,2,4]triazolo[1,5-a]pyridin-7-yl)-4-(4-(trifluoromethyl)thiazol-2-yl)-1H-pyrazole-5-carboxamide] yielded an IC50 of less than 5 nM.

The compound `COc1ccccc1-c1nc2cc(NC(=O)c3c(-c4nc(C(F)F)cs4)cnn3C)ccn2n1` [Example 3.16, 4-(4-(difluoromethyl)thiazol-2-yl)-N-(2-(2-methoxyphenyl)-[1,2,4]triazolo[1,5-a]pyridin-7-yl)-1-methyl-1H-pyrazole-5-carboxamide] displayed an IC50 of less than 5 nM.
